Laboratory results from patent publication US11993570B2, “Cationic lipids” (TAKEDA PHARMACEUTICAL COMPANY LIMITED, priority 2017, dated 2024).

Key:
[1] = Analysis of Col1a1/FVII siRNA lipid particle composition (Production Example 2); assay type: physicochemical; conditions: for Particle size: lipid particle cationic lipid:DPPC:cholesterol:GM-020=60:10.6:28:1.4 with Col1a1 and FVII siRNA, Zetasizer Nano ZS; for Encapsulation ratio / siRNA Concentration: lipid particle composition with Col1a1 and FVII siRNA, RiboGreen
Description: (§1) The particle size of the lipid particle (in the composition) can be measured by using a known means. For example, a Zetasizer Nano ZS (Malvern Instruments Limited), a particle size analyzer based on an NIBS (non-invasive backscatter) technique, can be used to calculate the particle size as a z-average particle size through cumulant analysis of the autocorrelation function. The particle size (average particle size) of the lipid particle (in the composition) is preferably 10 to 200 nm.
(§2) The concentration and encapsulation ratio of a nucleic acid (e.g., an siRNA, an mRNA) as an active ingredient in the composition of the present invention can be measured by using a known means. For example, after the nucleic acid is fluorescence-labeled with Quant-iT™ RiboGreen® (Invitrogen), the concentration and the encapsulation ratio can be determined by measuring the fluorescence intensity. The concentration of the nucleic acid in the composition can be calculated by using a standard curve prepared from aqueous solutions of the nucleic acid with known concentrations, and the encapsulation ratio can be calculated on the basis of difference in fluorescence intensity depending on the presence or absence of addition of Triton-X100 (a surfactant to disintegrate the lipid particle). The concentration of the nucleic acid in the composition refers to the total concentration of molecules of the nucleic acid encapsulated in the lipid particle and molecules of the nucleic acid not encapsulated in the lipid particle, and the encapsulation ratio refers to the fraction of molecules of the nucleic acid encapsulated in the lipid particle to all the molecules of the nucleic acid in the composition.
A lipid mixture (cationic lipid produced in Examples:DPPC:cholesterol:GM-020=60:10.6:28:1.4, in mole ratio) was dissolved in 90% EtOH/10% RNase-free water to afford an approximately 7 mg/mL lipid solution. Equal amounts of an siRNA for Col1a1 and an siRNA for Factor VII (FVII) were mixed together, and the mixture was dissolved in 25 mM acetate buffer at pH 4.0 to afford a 0.2 mg/mL nucleic acid solution. Sequence information on the siRNAs are shown in a table below. The lipid solution and nucleic acid solution obtained were mixed by using the apparatus NanoAssemblr (Precision Nanosystems) at room temperature with a flow rate ratio of 3 mL/min:9 mL/min to afford a dispersion containing a lipid particle including the nucleic acids. By using a Slyde-A-Lyzer (molecular weight cutoff: 20k, Thermo Fisher Scientific), the dispersion obtained was dialyzed with water at room temperature for 1 hour and with PBS at 4° C. for 48 hours. Subsequently, filtration was performed with a 0.2 µm syringe filter (IWAKI CO., LTD.) to prepare a composition for nucleic acid introduction, and thereafter the composition was stored at 4° C. The particle size of the lipid particle was measured by using a Zetasizer Nano ZS (Malvern Instruments Limited). The mRNA concentration and encapsulation ratio of the lipid particle were measured by using a Quant-iT™ RiboGreen® (Invitrogen).

[2] = Analysis of luciferase mRNA lipid particle composition (Production Example 1); assay type: physicochemical; conditions: for Particle size: lipid particle cationic lipid:DPPC:cholesterol:GM-020=60:10.6:28:1.4 with luciferase mRNA, Zetasizer Nano ZS; for Encapsulation ratio / mRNA Concentration: lipid particle composition with luciferase mRNA, RiboGreen
Description: as §1, §2
(§3) A lipid mixture (cationic lipid produced in Examples:DPPC:cholesterol:GM-020=60:10.6:28:1.4, in mole ratio) was dissolved in 90% EtOH/10% RNase-free water to afford a 8.5 mg/mL lipid solution. Luciferase mRNA (TriLink Bio Technologies) was dissolved in 10 mM 2-morpholinoethanesulfonate (MES) buffer at pH 4.0 to afford a 0.22 mg/mL nucleic acid solution. The lipid solution and nucleic acid solution obtained were mixed by using the apparatus NanoAssemblr (Precision Nanosystems) at room temperature with a flow rate ratio of 3 mL/min:6 mL/min to afford a dispersion containing a lipid particle encapsulating the nucleic acid. By using a Slyde-A-Lyzer (molecular weight cutoff: 20k, Thermo Fisher Scientific), the dispersion obtained was dialyzed with water at room temperature for 1 hour and with PBS at 4° C. for 48 hours. Subsequently, filtration was performed with a 0.2 µm syringe filter (IWAKI CO., LTD.) to prepare a composition for nucleic acid introduction, and thereafter the composition was stored at 4° C. The particle size of the lipid particle was measured by using a Zetasizer Nano ZS (Malvern Instruments Limited). The mRNA concentration and encapsulation ratio of the lipid particle were measured by using a Quant-iT™ RiboGreen® (Invitrogen).

HCT116 cells = assay: Test of mRNA transfection into cultured cells (luciferase expression); assay type: cell-based, human; conditions: HCT116, 10 ng luciferase mRNA per well, 24 hours after addition
Experimental: as §3
The human colorectal cancer-derived cell line HCT116 cells were cultured in a 96-well plate at a cell density of 6000 cells/well, and 24 hours thereafter 10 μL of the composition containing 10 ng of luciferase mRNA for nucleic acid introduction (a solution obtained by diluting the product of Production Example 1 to an mRNA concentration of 10 ng/10 μL) was added to the medium. The level of luciferase expressed in HCT116 24 hours after the addition of mRNA was measured by using a Picagene LT2.0 kit (TOYOBO CO., LTD.).

SMILES: CCCC/C=C\CCCCCCCC(=O)OCC(COC(=O)CCCCCCC/C=C\CCCC)(COC(=O)CCCCCCC/C=C\CCCCCC)COC(=O)CCCCN(C)C [Example 5, 3-((5-(dimethylamino)pentanoyl)oxy)-2,2-bis(((9Z)-tetradec-9-enoyloxy)methyl)propyl (9Z)-hexadec-9-enoate]
- Particle size [1]: 103 nm
- Encapsulation ratio [1]: 94%
- siRNA Concentration [1]: 367 µg/mL
- Particle size [2]: 91 nm
- Encapsulation ratio [2]: 98%
- mRNA Concentration [2]: 96 µg/mL
- Mean value of luminescence for 3 wells (HCT116 cells; Table 3 (PBS control 560)): 545507 cps

SMILES: CCCC/C=C\CCCCCCCC(=O)OCC(COC(=O)CCCCCCC/C=C\CCCC)(COC(=O)CCCCCCC/C=C\CCCC)COC(=O)CCCN(C)C [Example 1, 3-((4-(Dimethylamino)butanoyl)oxy)-2,2-bis(((9Z)-tetradec-9-enoyloxy)methyl)propyl (9Z)-tetradec-9-enoate]
- Particle size [2]: 71 nm
- Encapsulation ratio [2]: 96%
- mRNA Concentration [2]: 136 µg/mL
- Mean value of luminescence for 3 wells (HCT116 cells; Table 3 (PBS control 560)): 227720 cps

SMILES: CCCC/C=C\CCCCCCCC(=O)OCC(COC(=O)CCCCCCC/C=C\CCCC)(COC(=O)CCCCCCC/C=C\CCCCCC)COC(=O)CCCN(C)C [Example 4, 3-((4-(Dimethylamino)butanoyl)oxy)-2,2-bis(((9Z)-tetradec-9-enoyloxy)methyl)propyl (9Z)-hexadec-9-enoate]
- Particle size [1]: 90 nm
- Encapsulation ratio [1]: 89%
- siRNA Concentration [1]: 355 µg/mL
- Particle size [2]: 76 nm
- Encapsulation ratio [2]: 97%
- mRNA Concentration [2]: 113 µg/mL
- Mean value of luminescence for 3 wells (HCT116 cells; Table 3 (PBS control 560)): 407547 cps

SMILES: CCCC/C=C\CCCCCCCC(=O)OCC(COC(=O)CCCCCCC/C=C\CCCC)(COC(=O)CCCCCCCCCCC)COC(=O)CCCN(C)C [Example 11, 2-(((4-(Dimethylamino)butanoyl)oxy)methyl)-2-((dodecanoyloxy)methyl)propane-1,3-diyl (9Z,9′Z)bis-tetradec-9-enoate]
- Particle size [1]: 85 nm
- Encapsulation ratio [1]: 91%
- siRNA Concentration [1]: 402 µg/mL
- Particle size [2]: 83 nm
- Encapsulation ratio [2]: 92%
- mRNA Concentration [2]: 85 µg/mL
- Mean value of luminescence for 3 wells (HCT116 cells; Table 3 (PBS control 560)): 953520 cps

SMILES: CCCC/C=C\CCCCCCCC(=O)OCC(COC(=O)CCCCCCC/C=C\CCCC)(COC(=O)CCCCCCC/C=C\CCCCCCCC)COC(=O)CCCCN(C)C [Example 6, 3-((5-(dimethylamino)pentanoyl)oxy)-2,2-bis(((9Z)-tetradec-9-enoyloxy)methyl)propyl (9Z)-octadec-9-enoate]
- Particle size [1]: 87 nm
- Encapsulation ratio [1]: 98%
- siRNA Concentration [1]: 333 µg/mL

SMILES: CCCC/C=C\CCCCCCCC(=O)OCC(COC(=O)CCCCCCC/C=C\C/C=C\CCCCC)(COC(=O)CCCCCCC/C=C\CCCC)COC(=O)CCCCN(C)C [Example 7, 3-((5-(dimethylamino)pentanoyl)oxy)-2,2-bis(((9Z)-tetradec-9-enoyloxy)methyl)propyl (9Z,12Z)-octadec-9,12-dienoate]
- Particle size [1]: 102 nm
- Encapsulation ratio [1]: 96%
- siRNA Concentration [1]: 320 µg/mL

SMILES: CCCC/C=C\CCCCCCCC(=O)OCC(COC(=O)CCCCCCC)(COC(=O)CCCCCCC/C=C\CCCC)COC(=O)CCN(C)C [Example 8, 2-(((N,N-dimethyl-β-alanyl)oxy]methyl}-2-[(octanoyloxy)methyl)propane-1,3-diyl (9Z,9′Z)bis-tetradec-9-enoate]
- Particle size [2]: 67 nm
- Encapsulation ratio [2]: 94%
- mRNA Concentration [2]: 84 µg/mL
- Mean value of luminescence for 3 wells (HCT116 cells; Table 3 (PBS control 560)): 3853 cps

SMILES: CCCC/C=C\CCCCCCCC(=O)OCC(COC(=O)CCCCCCC/C=C\CCCC)(COC(=O)CCCCCCCCC)COC(=O)CCCN(C)C [Example 10, 2-((decanoyloxy)methyl)-2-(((4-(dimethylamino)butanoyl)oxy)methyl)propane-1,3-diyl (9Z,9′Z)bis-tetradec-9-enoate]
- Particle size [1]: 88 nm
- Encapsulation ratio [1]: 90%
- siRNA Concentration [1]: 307 µg/mL
- Particle size [2]: 92 nm
- Encapsulation ratio [2]: 84%
- mRNA Concentration [2]: 86 µg/mL
- Mean value of luminescence for 3 wells (HCT116 cells; Table 3 (PBS control 560)): 1203467 cps

SMILES: CCCC/C=C\CCCCCCCC(=O)OCC(COC(=O)CCCCCCC)(COC(=O)CCCCCCC/C=C\CCCC)COC(=O)CCCN(C)C [Example 9, 2-(((4-(dimethylamino)butanoyl)oxy)methyl)-2-((octanoyloxy)methyl)propane-1,3-diyl (9Z,9′Z)bis-tetradec-9-enoate]
- Particle size [2]: 108 nm
- Encapsulation ratio [2]: 62%
- mRNA Concentration [2]: 129 µg/mL
- Mean value of luminescence for 3 wells (HCT116 cells; Table 4 (PBS control 627)): 549893 cps

SMILES: CCCC/C=C\CCCCCCCC(=O)OCC(COC(=O)CCCCCCC/C=C\CCCC)(COC(=O)CCCCCCC/C=C\CCCC)COC(=O)CCCCCN(C)C [Example 3, 3-((6-(dimethylamino)hexanoyl)oxy)-2,2-bis(((9Z)-tetradec-9-enoyloxy)methyl)propyl (9Z)-tetradec-9-enoate]
- Particle size [1]: 117 nm
- Encapsulation ratio [1]: 95%
- siRNA Concentration [1]: 196 µg/mL
- Particle size [2]: 93 nm
- Encapsulation ratio [2]: 96%
- mRNA Concentration [2]: 87 µg/mL
- Mean value of luminescence for 3 wells (HCT116 cells; Table 3 (PBS control 560)): 412187 cps

SMILES: CCCC/C=C\CCCCCCCC(=O)OCC(COC(=O)CCCCCCC/C=C\CCCC)(COC(=O)CCCCCCC/C=C\CCCC)COC(=O)CCCCN(C)C [Example 2, 3-((5-(dimethylamino)pentanoyl)oxy)-2,2-bis(((9Z)-tetradec-9-enoyloxy)methyl)propyl (9Z)-tetradec-9-enoate]
- Particle size [1]: 104 nm
- Encapsulation ratio [1]: 98%
- siRNA Concentration [1]: 251 µg/mL
- Particle size [2]: 90 nm
- Encapsulation ratio [2]: 96%
- mRNA Concentration [2]: 73 µg/mL
- Mean value of luminescence for 3 wells (HCT116 cells; Table 3 (PBS control 560)): 570027 cps
